Assay results from the supplement of paper PMC11451515.

Legend:
Conditions in all cases: 48 h
NOMO1 [1] = experiment: cell viability relative to DMSO control; higher = less cytotoxic
Procedure, shortened: (§1)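 Library compounds in DMSO were pin-dosed into 1536-well plates (5 μl) holding NOMO1 or SEM (500 cells/well) or P12-Ichikawa (1000 cells/well) leukemia cells, across an 11-point threefold series of 47 μM to 0.79 nM. Each cell line had been adapted for at least four passages in each medium. CellTiter-Glo One luminescence was read after 48 h at 37°C. Viability is the per-plate percentage relative to DMSO wells, with cell-free wells as background.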

P12-Ichikawa [2] = experiment: as above
Procedure, shortened: as §1

SEM cells [3] = experiment: as above
Procedure, shortened: as §1

NOMO1 [4] = experiment: AUC of viability dose-response curve (% viability x log10 dose units); higher = less sensitive
Procedure, shortened: (§2)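 Leukemia cells adapted to each medium were seeded in 1536-well plates (500 or 1000 cells/well). They were dosed with library compounds in DMSO at 11 threefold doses, 47 μM to 0.79 nM, for 48 h at 37°C. CellTiter-Glo One luminescence was normalised per plate to DMSO and cell-free wells. Area under the curve was integrated by trapezoidal rule over log10 doses on a four-parameter log-logistic fit; curves exceeding full viability were scaled and curves failing quality control removed.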

P12-Ichikawa [5] = experiment: as above
Procedure, shortened: as §2

SEM cells [6] = experiment: as above
Procedure, shortened: as §2

COC1=CC=C(C=C1)C/2=C/OC3=C(C(=CC(=C3)O)O)C2=O
cell viability [%]
Conditions | NOMO1 [1] | P12-Ichikawa [2] | SEM cells [3]
HPLM + 10% dialyzed FBS, 0.000781 µM | 111 | 113 | 108
HPLM + 10% dialyzed FBS, 0.00234 µM | 124 | 120 | 124
HPLM + 10% dialyzed FBS, 0.00702 µM | 133 | 118 | 110
HPLM + 10% dialyzed FBS, 0.0211 µM | 114 | 77.2 | 95.9
HPLM + 10% dialyzed FBS, 0.0632 µM | 130 | 124 | 115
HPLM + 10% dialyzed FBS, 0.19 µM | 123 | 120 | 114
HPLM + 10% dialyzed FBS, 0.569 µM | 133 | 119 | 125
HPLM + 10% dialyzed FBS, 1.71 µM | 122 | 123 | 124
HPLM + 10% dialyzed FBS, 5.12 µM | 116 | 117 | 125
HPLM + 10% dialyzed FBS, 15.4 µM | 114 | 105 | 131
HPLM + 10% dialyzed FBS, 46.1 µM | 60.5 | 74.5 | 75.2
RPMI 5 mM glucose + 10% FBS, 0.000781 µM | – | 108 | 90.7
RPMI 5 mM glucose + 10% FBS, 0.00234 µM | – | 108 | 92.9
RPMI 5 mM glucose + 10% FBS, 0.00702 µM | – | 113 | 101
RPMI 5 mM glucose + 10% FBS, 0.0211 µM | – | 65.2 | 74.8
RPMI 5 mM glucose + 10% FBS, 0.0632 µM | – | 120 | 103
RPMI 5 mM glucose + 10% FBS, 0.19 µM | – | 120 | 100
RPMI 5 mM glucose + 10% FBS, 0.569 µM | – | 133 | 108
RPMI 5 mM glucose + 10% FBS, 1.71 µM | – | 121 | 106
RPMI 5 mM glucose + 10% FBS, 5.12 µM | – | 123 | 124
RPMI 5 mM glucose + 10% FBS, 15.4 µM | – | 127 | 114
RPMI 5 mM glucose + 10% FBS, 46.1 µM | – | 123 | 98.2
RPMI 5 mM glucose + 10% dialyzed FBS, 0.000781 µM | 111 | 118 | 98.7
RPMI 5 mM glucose + 10% dialyzed FBS, 0.00234 µM | 116 | 118 | 115
RPMI 5 mM glucose + 10% dialyzed FBS, 0.00702 µM | 120 | 119 | 122
RPMI 5 mM glucose + 10% dialyzed FBS, 0.0211 µM | 130 | 82 | 77.4
RPMI 5 mM glucose + 10% dialyzed FBS, 0.0632 µM | 156 | 131 | 133
RPMI 5 mM glucose + 10% dialyzed FBS, 0.19 µM | 144 | 133 | 130
RPMI 5 mM glucose + 10% dialyzed FBS, 0.569 µM | 144 | 129 | 132
RPMI 5 mM glucose + 10% dialyzed FBS, 1.71 µM | 140 | 137 | 138
RPMI 5 mM glucose + 10% dialyzed FBS, 5.12 µM | 140 | 133 | 143
RPMI 5 mM glucose + 10% dialyzed FBS, 15.4 µM | 143 | 134 | 145
RPMI 5 mM glucose + 10% dialyzed FBS, 46.1 µM | 106 | 93.7 | 132

AUC of viability dose-response curve
Conditions | NOMO1 [4] | P12-Ichikawa [5] | SEM cells [6]
HPLM + 10% dialyzed FBS | 460 | 465 | 463
RPMI 5 mM glucose + 10% FBS | 474 | 441 | 436
RPMI 5 mM glucose + 10% dialyzed FBS | 453 | 453 | 435

NC/1=N/C2=C([NH]C=N2)C(=S)N1
cell viability [%]
Conditions | NOMO1 [1] | P12-Ichikawa [2] | SEM cells [3]
HPLM + 10% dialyzed FBS, 0.000781 µM | 107 | 113 | 110
HPLM + 10% dialyzed FBS, 0.00234 µM | 121 | 122 | 57
HPLM + 10% dialyzed FBS, 0.00702 µM | 121 | 116 | 106
HPLM + 10% dialyzed FBS, 0.0211 µM | 133 | 123 | 115
HPLM + 10% dialyzed FBS, 0.0632 µM | 131 | 123 | 117
HPLM + 10% dialyzed FBS, 0.19 µM | 115 | 121 | 114
HPLM + 10% dialyzed FBS, 0.569 µM | 122 | 120 | 108
HPLM + 10% dialyzed FBS, 1.71 µM | 137 | 119 | 117
HPLM + 10% dialyzed FBS, 5.12 µM | 126 | 98.2 | 113
HPLM + 10% dialyzed FBS, 15.4 µM | 145 | 94.2 | 110
HPLM + 10% dialyzed FBS, 46.1 µM | 35.1 | 28.9 | 24.2
RPMI 5 mM glucose + 10% FBS, 0.000781 µM | 111 | 119 | 114
RPMI 5 mM glucose + 10% FBS, 0.00234 µM | 119 | 120 | 81.5
RPMI 5 mM glucose + 10% FBS, 0.00702 µM | 123 | 124 | 117
RPMI 5 mM glucose + 10% FBS, 0.0211 µM | 119 | 116 | 105
RPMI 5 mM glucose + 10% FBS, 0.0632 µM | 113 | 131 | 119
RPMI 5 mM glucose + 10% FBS, 0.19 µM | 115 | 130 | 114
RPMI 5 mM glucose + 10% FBS, 0.569 µM | 117 | 116 | 102
RPMI 5 mM glucose + 10% FBS, 1.71 µM | 120 | 119 | 103
RPMI 5 mM glucose + 10% FBS, 5.12 µM | 109 | 96 | 102
RPMI 5 mM glucose + 10% FBS, 15.4 µM | 101 | 88.1 | 108
RPMI 5 mM glucose + 10% FBS, 46.1 µM | 27.6 | 21.2 | 16.1
RPMI 5 mM glucose + 10% dialyzed FBS, 0.000781 µM | – | 105 | 95.1
RPMI 5 mM glucose + 10% dialyzed FBS, 0.00234 µM | – | 117 | 81.6
RPMI 5 mM glucose + 10% dialyzed FBS, 0.00702 µM | – | 124 | 103
RPMI 5 mM glucose + 10% dialyzed FBS, 0.0211 µM | – | 122 | 118
RPMI 5 mM glucose + 10% dialyzed FBS, 0.0632 µM | – | 125 | 113
RPMI 5 mM glucose + 10% dialyzed FBS, 0.19 µM | – | 112 | 103
RPMI 5 mM glucose + 10% dialyzed FBS, 0.569 µM | – | 118 | 81
RPMI 5 mM glucose + 10% dialyzed FBS, 1.71 µM | – | 110 | 37.7
RPMI 5 mM glucose + 10% dialyzed FBS, 5.12 µM | – | 79 | 29.6
RPMI 5 mM glucose + 10% dialyzed FBS, 15.4 µM | – | 59.7 | 33.5
RPMI 5 mM glucose + 10% dialyzed FBS, 46.1 µM | – | 11.1 | 9.21

AUC of viability dose-response curve
Conditions | NOMO1 [4] | P12-Ichikawa [5] | SEM cells [6]
HPLM + 10% dialyzed FBS | 457 | 441 | 458
RPMI 5 mM glucose + 10% FBS | 451 | 433 | 457
RPMI 5 mM glucose + 10% dialyzed FBS | 402 | 409 | 345

C#C[C@]1(O)CC[C@H]2[C@@H]3CCc4cc(O)ccc4[C@H]3CC[C@@]21C
cell viability [%]
Conditions | NOMO1 [1] | P12-Ichikawa [2] | SEM cells [3]
HPLM + 10% dialyzed FBS, 0.000781 µM | 101 | 102 | 86.5
HPLM + 10% dialyzed FBS, 0.00234 µM | 116 | 98.3 | 103
HPLM + 10% dialyzed FBS, 0.00702 µM | 104 | 95.9 | 99.6
HPLM + 10% dialyzed FBS, 0.0211 µM | 104 | 97.4 | 96.6
HPLM + 10% dialyzed FBS, 0.0632 µM | 102 | 95.7 | 92.2
HPLM + 10% dialyzed FBS, 0.19 µM | 105 | 102 | 99.4
HPLM + 10% dialyzed FBS, 0.569 µM | 109 | 89.5 | 103
HPLM + 10% dialyzed FBS, 1.71 µM | 96 | 97.3 | 98.9
HPLM + 10% dialyzed FBS, 5.12 µM | 97.9 | 95.8 | 105
HPLM + 10% dialyzed FBS, 15.4 µM | 68 | 75.3 | 68
HPLM + 10% dialyzed FBS, 46.1 µM | 51.3 | 47.2 | 47.1
RPMI 5 mM glucose + 10% FBS, 0.000781 µM | 97.7 | 98.3 | 92.3
RPMI 5 mM glucose + 10% FBS, 0.00234 µM | 93.9 | 95.6 | 116
RPMI 5 mM glucose + 10% FBS, 0.00702 µM | 99.9 | 89.4 | 115
RPMI 5 mM glucose + 10% FBS, 0.0211 µM | 95.9 | 93.6 | 113
RPMI 5 mM glucose + 10% FBS, 0.0632 µM | 105 | 92.3 | 105
RPMI 5 mM glucose + 10% FBS, 0.19 µM | 91.9 | 94.3 | 107
RPMI 5 mM glucose + 10% FBS, 0.569 µM | 87 | 96.7 | 111
RPMI 5 mM glucose + 10% FBS, 1.71 µM | 91.5 | 83.7 | 104
RPMI 5 mM glucose + 10% FBS, 5.12 µM | 89 | 89.1 | 99.8
RPMI 5 mM glucose + 10% FBS, 15.4 µM | 85 | 67.7 | 62.9
RPMI 5 mM glucose + 10% FBS, 46.1 µM | 80.4 | 42.6 | 48.7
RPMI 5 mM glucose + 10% dialyzed FBS, 0.000781 µM | 97.2 | 87.5 | 93.7
RPMI 5 mM glucose + 10% dialyzed FBS, 0.00234 µM | 103 | 86.7 | 111
RPMI 5 mM glucose + 10% dialyzed FBS, 0.00702 µM | 87.4 | 88.9 | 108
RPMI 5 mM glucose + 10% dialyzed FBS, 0.0211 µM | 101 | 92.3 | 108
RPMI 5 mM glucose + 10% dialyzed FBS, 0.0632 µM | 99.4 | 93.3 | 108
RPMI 5 mM glucose + 10% dialyzed FBS, 0.19 µM | 106 | 92.4 | 98.2
RPMI 5 mM glucose + 10% dialyzed FBS, 0.569 µM | 92.4 | 95.6 | 95.1
RPMI 5 mM glucose + 10% dialyzed FBS, 1.71 µM | 78.3 | 85.6 | 114
RPMI 5 mM glucose + 10% dialyzed FBS, 5.12 µM | 89.1 | 81.8 | 100
RPMI 5 mM glucose + 10% dialyzed FBS, 15.4 µM | 71.3 | 72.5 | 68.8
RPMI 5 mM glucose + 10% dialyzed FBS, 46.1 µM | 48.4 | 58.3 | 57.6

AUC of viability dose-response curve
Conditions | NOMO1 [4] | P12-Ichikawa [5] | SEM cells [6]
HPLM + 10% dialyzed FBS | 444 | 441 | 442
RPMI 5 mM glucose + 10% FBS | 442 | 418 | 440
RPMI 5 mM glucose + 10% dialyzed FBS | 429 | 410 | 448
